Here are results for eleven compounds from PubChem BioAssay (NCI).

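Dose response: 5 concentrations. Exposure: 48 h. Format: 96-well plates. Endpoint: linear interpolation; highest concentration if not reached. TGI: concentration producing complete growth inhibition.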

Some test systems named below: SNB-75 CNS; NCI-H23 lung; UO-31 renal; SF-539 CNS; U251 CNS; SNB-19 CNS; OVCAR-3 ovarian; HCT-15 colon; HT29 colon; NCI-H226 lung; BT-549 breast; SN12C renal; TK-10 renal; HCT-116 colon; SR leukemia.
What all share (test): DTP human tumour cell line panel, 48 h

Turning to `CC(NC(=O)C(N)CC(=O)O)NC(=O)C1CCC1` (stereo unspecified), the TGI in the experiment with SNB-75 CNS, in the experiment on NCI-H23 lung, with UO-31 renal, in the experiment on SF-539 CNS, in the experiment with U251 CNS and in the experiment on SNB-19 CNS was above 100 µM throughout. In addition, the total growth inhibition concentration (TGI) in the experiment with OVCAR-3 ovarian, in the experiment on HCT-15 colon, in the experiment on HT29 colon, in the experiment on NCI-H226 lung, with BT-549 breast and in the experiment on SN12C renal was above 100 µM throughout. Moreover, the TGI with TK-10 renal and in the experiment with HCT-116 colon was above 100 µM throughout.

As for `CC1=CC[C@@]2(CO)[C@@H]([C@@H]1C)[C@H]1CC[C@@H]3[C@@]4(C)CC[C@H](O)C(C)(C)[C@@H]4CC[C@@]3(C)[C@]1(C)C[C@@H]2O`, the TGI was 46.4 µM with NCI-H23 lung; above 100 µM with UO-31 renal; 46.7 µM in the experiment on U251 CNS; above 100 µM with SNB-19 CNS; above 100 µM with OVCAR-3 ovarian; above 100 µM in the experiment on HCT-15 colon. Besides, the TGI in the experiment with HT29 colon is above 100 µM; with NCI-H226 lung, 81.4 µM; in the experiment on BT-549 breast it was 59.2 µM; in the experiment with SN12C renal, above 100 µM; with TK-10 renal, 44.4 µM; in the experiment with HCT-116 colon, above 100 µM.

As to `CCOC(=O)[C@@]12C3C=CC(CC3)[C@]1(C(=O)c1ccccc1)C(=O)C(=O)N2c1ccccc1` (stereo partly specified), the TGI with NCI-H23 lung, with UO-31 renal, in the experiment with SF-539 CNS, with U251 CNS, in the experiment with SNB-19 CNS and in the experiment on OVCAR-3 ovarian was above 100 µM in each case. For the same compound, the TGI in the experiment on HCT-15 colon, with HT29 colon, with SR leukemia, in the experiment on SN12C renal, in the experiment on TK-10 renal and with HCT-116 colon was above 100 µM each time.

Take `Oc1ccc(N=C2CCC(=C(c3ccccc3)c3ccc(Nc4ccc(O)cc4)cc3)CC2)cc1`: the TGI in the experiment with NCI-H23 lung, in the experiment on UO-31 renal, in the experiment on SF-539 CNS, in the experiment on U251 CNS, in the experiment with SNB-19 CNS and in the experiment with HCT-15 colon was above 100 µM each time. Besides, the TGI with HT29 colon, in the experiment with SR leukemia, with NCI-H226 lung, in the experiment with SN12C renal, with TK-10 renal and in the experiment on HCT-116 colon was above 100 µM in each case.

`c1ccc(-n2nc3ccc4nonc4c3n2)cc1`: the TGI with SNB-75 CNS, in the experiment on NCI-H23 lung, with SF-539 CNS, with U251 CNS, in the experiment on SNB-19 CNS and with OVCAR-3 ovarian was above 100 µM each time. Also, the TGI in the experiment on HCT-15 colon, in the experiment with HT29 colon, in the experiment on SR leukemia, in the experiment on SN12C renal, in the experiment on TK-10 renal and in the experiment with HCT-116 colon was above 100 µM in each case.

Take `C1=C(c2ccccc2)Nc2nnnn2C1c1ccccc1` (stereo unspecified): the TGI in the experiment with NCI-H23 lung is above 100 µM; with UO-31 renal it was above 100 µM; in the experiment on SF-539 CNS, 81 µM; with U251 CNS, 52 µM; in the experiment on SNB-19 CNS it was above 100 µM; with OVCAR-3 ovarian, above 100 µM. Further, the TGI in the experiment on HCT-15 colon was 37.7 µM; in the experiment on HT29 colon, 41.5 µM; in the experiment on SR leukemia, 51.3 µM; in the experiment with NCI-H226 lung, above 100 µM; in the experiment with SN12C renal it was above 100 µM; in the experiment with TK-10 renal it was 73.9 µM. Also, in the experiment on HCT-116 colon, the TGI is 22.3 µM.

Turning to `CC1CC[C@@]2(OC1)OC1CC3C4CCC5C[C@@H](OC6OC(CO)C(OC7OC(CO)C(O)C(OC8OC(CO)C(O)C(OC9OC(CO)C(O)C(O)C9O)C8O)C7OC7OC(CO)C(O)C(O)C7O)C(O)C6O)[C@H](O)C[C@]5(C)C4CC[C@]3(C)C1[C@@H]2C` (stereo partly specified), the TGI with SNB-75 CNS, in the experiment on NCI-H23 lung, in the experiment on SF-539 CNS, in the experiment on U251 CNS, with SNB-19 CNS and with OVCAR-3 ovarian was above 80.5 µM each time. The TGI in the experiment with HCT-15 colon, in the experiment with HT29 colon, with NCI-H226 lung, in the experiment on BT-549 breast, in the experiment with SN12C renal and with TK-10 renal was above 80.5 µM each time. In the experiment on HCT-116 colon, this compound registered a TGI above 80.5 µM.

On to `CCc1n[nH]c(=O)n1/N=C/c1ccc(C)cc1`, for which the TGI in the experiment on NCI-H23 lung, in the experiment with UO-31 renal, in the experiment with SF-539 CNS, in the experiment with U251 CNS, with SNB-19 CNS and in the experiment on OVCAR-3 ovarian was above 100 µM each time. Moreover, the TGI in the experiment with HCT-15 colon, in the experiment with HT29 colon, in the experiment on NCI-H226 lung, in the experiment with BT-549 breast, in the experiment on SN12C renal and with TK-10 renal was above 100 µM throughout. This compound also returned a TGI in the experiment on HCT-116 colon above 100 µM.

Regarding `COC(CC1(/C=C/O[Si](C(C)C)(C(C)C)C(C)C)C(=O)N(C)c2ccccc21)OC` (stereo unspecified), the TGI in the experiment with SNB-75 CNS, with NCI-H23 lung, in the experiment with UO-31 renal, in the experiment on U251 CNS, in the experiment with SNB-19 CNS and in the experiment on OVCAR-3 ovarian was above 100 µM throughout. Also, the TGI was above 100 µM in the experiment with HCT-15 colon; above 100 µM with SR leukemia; 90 µM with NCI-H226 lung; above 100 µM in the experiment on SN12C renal; above 100 µM with HCT-116 colon.

As for `C[n+]1c(-c2ccc(/C=N/NC(=O)C(=O)N/N=C/c3ccc(-c4cn5ccsc5[n+]4C)cc3)cc2)cn2ccsc21`, the TGI in the experiment on SNB-75 CNS, with UO-31 renal, with SF-539 CNS, with U251 CNS, with SNB-19 CNS and with HCT-15 colon was above 100 µM in each case. Moreover, the TGI in the experiment on HT29 colon, in the experiment with SR leukemia, in the experiment with SN12C renal, in the experiment with TK-10 renal and in the experiment on HCT-116 colon was above 100 µM in each case.

`COC(=O)[C@@H]1CN(C(C)=O)C(=O)N1C(=O)OCc1ccccc1`: the total growth inhibition concentration (TGI) in the experiment with NCI-H23 lung, in the experiment with UO-31 renal, in the experiment on SF-539 CNS, with U251 CNS, in the experiment on SNB-19 CNS and in the experiment on OVCAR-3 ovarian was above 100 µM in each case. Besides, the TGI with HCT-15 colon, in the experiment on HT29 colon, in the experiment on SR leukemia, in the experiment with NCI-H226 lung, with SN12C renal and with TK-10 renal was above 100 µM each time. In addition, in the experiment with HCT-116 colon, the TGI was above 100 µM.

As a reminder, the TGI is the concentration giving total growth inhibition. High values mean less potent growth arrest, low ones more potent growth arrest.
